Data on six molecules can be found in article PMC8744131, “Dimensionless parameter predicts bacterial prodrug success” (Molecular Systems Biology, 2022).

The subject of assay [1] is OmpT expressed on the surface of E. coli K‐12 BW25113. Nature of the assay: Cleavage assay with OmpT expressed on the surface of E. coli. The class given is biochemical. To be noted: 37°C, n = 3. The text has this:
To measure OmpT activity, we synthesized an activity probe (McCarter et al, [2004]; Kwong et al, [2013], [2021]; Holt et al, [2017], [2018]; Mac et al, [2019]; Zhuang et al, [2019]) with free linker peptides containing a fluorophore‐quencher pair, which produced an increase in fluorescence upon proteolytic cleavage.
(§1) Positive control for AMP toxicity (black bar).

Assay [2] deals with DH5α E. coli. The assay is described as follows: Bacteria viability assay, AMP prodrugs with TEV protease or inhibitor. Format: cell-based. The following applies: CFU, n = 3–4.
The subject of assay [3] is DH5α E. coli. The assay is described as follows: Bacterial Advantage Heuristic (BAH) / model, AMP prodrug system. The text has this: (§2) This allowed us to more rigorously test the model by predicting bacteria‐prodrug response curves across nine distinct combinations of kcat and r values before performing the physical experiments. We experimentally controlled the nine distinct combinations of kcat and r values by altering the ambient temperature and concentration of broth (conditions labeled A1–3, B1–3, and C1–3; Table EV3). We affected the enzymatic activation rate of the prodrug, kcat, by changing temperature as described by the Arrhenius equation (Calvert, [1990]). […] To experimentally validate this, we incubated bacteria with AMP prodrug under the defined nine conditions and quantified the number of living bacteria longitudinally over the course of a 24‐h treatment window.

In assay [4] the target is OmpT (Escherichia coli, UniProt P09169). To be noted: Fig EV5B, text printed in picture.
Sequence of OmpT (Escherichia coli, UniProt P09169) (P09169 21-317): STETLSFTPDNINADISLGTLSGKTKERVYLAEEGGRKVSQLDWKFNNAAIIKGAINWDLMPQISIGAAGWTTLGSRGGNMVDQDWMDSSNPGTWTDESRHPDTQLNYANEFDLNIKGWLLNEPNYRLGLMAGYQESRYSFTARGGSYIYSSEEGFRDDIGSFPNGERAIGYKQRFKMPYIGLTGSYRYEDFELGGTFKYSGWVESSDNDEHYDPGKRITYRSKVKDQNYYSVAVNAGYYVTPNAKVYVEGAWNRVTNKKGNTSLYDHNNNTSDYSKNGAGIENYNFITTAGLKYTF
Description: as §2

For assay [5], the system named is DH5α E. coli. The assay is described as follows: Short-time drug dosing experiment with free AMP for a and b. Format: cell-based. The following applies: DH5a + AMP prodrug model; from free AMP dosing, t < 10 min, n = 3.
Description: Experiment was taken at a short time interval (t < 10 min) so we could calculate the number of bacteria and drug copies consumed in each killing reaction.
The target of another assay is OmpT on DH5α E. coli (Escherichia coli, UniProt P09169).
Sequence of OmpT on DH5α E. coli (P09169 21-317): as above
Description: as §2
Figure EV2 Calculating bacterial growth rate and enzymatic activity in the AMP prodrug system • Schematic of the simplified model that only includes bacteria and a substrate probe, which was used to quantify r and kcat from bacterial cleavage assays. • Bacterial cleavage assays (blue line) where we are measuring the increase in fluorescence from the cleavage of the fluor‐quencher substrate probe over time. Bacteria and fluor‐quencher probe are incubated together for 12 h. Then, we fit a simplified model to the results, which is plotted as the dashed line. Each panel is labeled with the environmental condition as described in Table EV3 and correlating with Fig 4.
Table EV3. Additional information for experimental conditions. This information includes incubation temperature (second column from left), the concentration of LB broth by volume (third column from left), growth rate, r (fourth column from left), enzyme catalytic turnover, kcat (fifth column from left), and the bacterial advantage heuristic, BAH (sixth column from left).

In a further assay the test system is UTI89 E. coli. Nature of the assay: Bacterial toxicity of TMP and TM-TMP (CFU / MIC). The class given is cell-based.
For assay [6], the system named is OmpT. To be noted: micromolar concentrations; ref Brannon et al, 2015; cited from earlier work. The text has this:
To validate the predictions of our mathematical model with an in vitro bacteria‐activated prodrug system, we synthesized a protease‐activated AMP prodrug. This AMP prodrug comprised cationic (polyarginine, R9) antimicrobial peptides (AMP) in charge complexation with anionic peptide locks (polyglutamic acid, E13) by a linker peptide (RRS|RRV) specific for the ubiquitous bacterial protease OmpT (Olson et al, [2009]; preprint: Holt et al, [2019]). Upon proteolytic cleavage of the linker, the hairpin prodrug is unlocked to release free AMP (Fig 3A). To measure OmpT activity, we synthesized an acti ...

Assay [7] relates to DH5α E. coli. Nature of the assay: Bacteria viability assay (CFU), AMP system. Format: cell-based. The protocol:
as §1
Figure EV4 Parent drug control for all conditions in AMP prodrug system Parent drug (R9, polyarginine) controls for conditions testing different media conditions and temperatures in the AMP prodrug studies.
DH5α Escherichia coli were a gift from Todd Sulchek's BioMEMS lab at Georgia Tech. E. coli were cultured in LB broth (Lennox) at 37°C and plated on LB agar (Lennox) plates. LB broth was purchased from Millipore Sigma (Burlington, MA) and LB agar was purchased from Invitrogen (Carlsbad, CA). AMP and locked AMP were custom ordered from Genscript (Piscataway, NJ). See Table EV1 for more information. Bacteria were grown to a concentration of 10^9 CFU/ml before being used for experiments. Concentration was estimated by measuring the OD600 of the bacterial suspension, and assuming an OD600 of 1.000 corresponds to a concentration of 8 × 10^8 CFU/ml. Bacterial cell viability was measured by making eight 10‐fold serial dilutions, and plating three 10‐µl spots on an LB agar plate. Plates were incubated overnight at 37°C, and CFUs were counted. Untreated bacteria CFU counts served as control for 0% cytotoxicity, and bacteria + IPA (or 0 countable CFUs) served as control for 100% cytotoxicity.

Converted amounts (≈) assume the structure as drawn. Read-outs that look alike come from different tables or passages of the source. Where no end group is shown, it is not given here. The star is where a group is joined. 5FAM = O=C1OC2(c3ccc(O)cc3Oc3cc(O)ccc32)c2ccc(C(=O)*)cc21; Dabcyl = CN(C)c1ccc(N=Nc2ccc(C(=O)*)cc2)cc1

Description for UTI89 E. coli: Just as with our earlier experiments, we measured (i) the number of bacteria and (ii) the number of drug molecules consumed in each killing reaction to calculate the parameters a and b, respectively (Fig EV8).

On to “Dabcyl-RRSRRVK(5FAM) [OmpT Probe, free linker peptide RRSRRV with fluorophore-quencher pair]”, for which the “linker specificity: cleavage activity by parent strain vs OmpT knockout” value in assay [1] (OmpT-positive E. coli K‐12 BW25113 vs OmpT genetic knockout, fluorescence 485/528 nm, 60–120 min) was “only observed activity in samples incubated with the parent strain (i.e., OmpT‐positive)”. For the same molecule, the “cleavage activity in presence of aprotinin” value in assay [1] (recombinant OmpT or E. coli surface OmpT with aprotinin, fluorescence) is reported as “no activity in samples containing the serine protease inhibitor, Aprotinin”.
On to “EEEEEEEEEEEEERRSRRVRRRRRRRRR [Locked AMP (linker 1)]”, for which the elimination of bacteria result in the assay on DH5α E. coli [2] (OmpT-specific locked AMP alone, natively expressed OmpT) was “elimination of bacteria”. The “ratio of a to b” value with DH5α E. coli [3] was 0.5 × 10^−11. Also, the “catalytic efficiency kcat/Km (rank in words)” value on OmpT [4] is “High”. Besides, the “a, bacterial death rate constant” value in the assay with DH5α E. coli [5] was determined as 1e-13 µL/h. Also, in the assay with DH5α E. coli [5], the “b, drug decay rate constant” value was determined as 0.02 µL/h. Also, the kcat on OmpT on DH5α E. coli (condition A1: 37 °C, 0% LB broth, r 0.1 h^-1) was determined as 25 h^-1 x 10^10; at OmpT on DH5α E. coli (condition A2: 30 °C, 2% LB broth, r 0.14 h^-1), 13.6 h^-1 x 10^10; on OmpT on DH5α E. coli (condition A3: 37 °C, 2% LB broth, r 0.3 h^-1), 22 h^-1 x 10^10; on OmpT on DH5α E. coli (condition B1: 37 °C, 4% LB broth, r 0.5 h^-1), 15 h^-1 x 10^10; at OmpT on DH5α E. coli (condition B2: 37 °C, 6% LB broth, r 0.85 h^-1), 13.6 h^-1 x 10^10; at OmpT on DH5α E. coli (condition B3: 37 °C, 20% LB broth, r 2.2 h^-1) it was 1 h^-1 x 10^10. The kcat on OmpT on DH5α E. coli (condition C1: 30 °C, 20% LB broth, r 1.4 h^-1) was determined as 5.2 h^-1 x 10^10; at OmpT on DH5α E. coli (condition C2: 30 °C, 66% LB broth, r 1.6 h^-1), 4 h^-1 x 10^10; at OmpT on DH5α E. coli (condition C3: 37 °C, 66% LB broth, r 3 h^-1), 6 h^-1 x 10^10.
As to `COc1cc(Cc2cnc(N)nc2N)cc(OC)c1OC` [TMP, trimethoprim], the “change in number of bacteria killed on adding GSH” value with UTI89 E. coli (5 mM GSH vs no GSH, surviving CFU) is listed as “did not significantly change”. Moreover, in the assay on UTI89 E. coli (37°C, 75% broth, n = 3), the “efficiency at killing bacteria vs TM-TMP” value is “significantly more efficient at killing UTI89 bacteria”. For the same molecule, the MIC with UTI89 E. coli (Escherichia coli, 37°C, 75% broth, n = 3, read-out: minimum inhibitory concentration (MIC)) was found to be 3.2 µM (≈ 0.929 µg/mL).
For the molecule aprotinin [reference compound], the “reduction of bacteria load” value with DH5α E. coli [2] (control with OmpT inhibitor aprotinin plus OmpT-specific locked AMP) is recorded as “did not significantly reduce bacteria load”. Also, in the assay with OmpT [6], the “inhibition of OmpT” value is “inhibits OmpT when present in micromolar concentrations”.
On to polyarginine [free AMP], for which the “reduction in colonies vs untreated controls” value in the assay with DH5α E. coli [7] (free AMP, CFU, n = 3–4 biological replicates, one-way ANOVA) is “significant reduction in colonies compared to untreated controls”. Further, the treatment success result in the assay with DH5α E. coli [7] (nine conditions A1–C3 (30/37 °C, 0–66% LB broth), 24 h, serial CFU, n = 3) is “successfully treated bacteria in all nine conditions tested”.
On to “EEEEEEEEENLYFQGRRRRRRRR [Locked AMP (linker 3)]”, for which, in the assay with DH5α E. coli [2] (TEV-specific locked AMP alone (no TEV protease)), the “reduction of bacteria load” value was “did not significantly reduce bacteria load”. Besides, the elimination of bacteria result with DH5α E. coli [2] (TEV-specific locked AMP plus TEV protease) is “elimination of bacteria”. The “catalytic efficiency kcat/Km (rank in words)” value at OmpT [4] was “Lowest”.
